Reference: US5599812A, “Tricyclic pyrrolopyrazine 5-HT3 -active compounds” (Adir Et Compagnie, priority 1993, dated 1997)
pEC50: −log10 of the molar value.

What was measured:
5-HT3 receptors [1] = biological target: T1, 5-HT3 receptors (Mus musculus, UniProt P23979); assay: Accumulation of 14C-guanidinium in NG 108-15 cells; settings: for multiplication of the intracellular accumulation of 14C-guanidinium: fold, agonist at 10 μM-0.1 mM
T1 sequence (P23979 24-489): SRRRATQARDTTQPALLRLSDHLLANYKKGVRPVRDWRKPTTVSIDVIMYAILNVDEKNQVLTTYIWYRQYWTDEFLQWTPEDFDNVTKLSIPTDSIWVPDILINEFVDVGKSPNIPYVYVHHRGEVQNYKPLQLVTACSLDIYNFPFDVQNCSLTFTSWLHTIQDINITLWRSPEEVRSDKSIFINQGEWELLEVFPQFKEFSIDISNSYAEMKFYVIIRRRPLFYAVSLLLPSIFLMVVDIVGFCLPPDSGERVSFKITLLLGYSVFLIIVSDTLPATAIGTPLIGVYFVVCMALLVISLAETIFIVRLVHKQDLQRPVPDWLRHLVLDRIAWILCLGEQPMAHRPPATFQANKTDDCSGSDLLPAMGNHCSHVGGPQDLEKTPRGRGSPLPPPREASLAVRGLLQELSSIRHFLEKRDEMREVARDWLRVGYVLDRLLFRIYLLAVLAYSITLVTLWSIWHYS
Method: The accumulation of ^14 -C-guanidinium in NG 108-15 cells is measured and makes it possible to study the interaction of the tested compounds with 5-HT3 receptors, knowing that this accumulation is stimulated by agonists of 5-HT3 receptors.
The NG 108-15 hybrid clone (neuroblastoma-glioma) is cultured under standard conditions (Dulbecco's medium to which 40 mM of sodium bicarbonate, 1.8 mM of L-glutamine, 0.1 mM of hypoxanthine, 1 μM of aminopterin, 16 μM of thymine and 10% of fetal calf serum are added) at 37° C. in an atmosphere enriched in CO2 (7%). At confluence (.congruent.3.5×10^5 cells in dishes with diameters of 35 mm), the culture medium is sucked off and the cell lawn is rapidly washed with 3 cm^3 of a HEPES (20 mM) buffer containing 145 mM of NaCl, 5.4 mM of KCl, 1.8 mM of CaCl2, 1.0 mM of MgCl2 and 20 mM of glucose, pH 7.4. […] The incubation lasts 10 minutes at 37° C. The medium is then sucked off and the cells are rapidly washed twice with 3 cm^3 of the washing buffer in which the NaCl has been fully replaced by an equimolar concentration of choline chloride. Finally, the cell lawn is taken up in 0.5 cm^3 of 0.4N sodium hydroxide solution and the accumulated radioactivity is counted by spectrometry in liquid medium (Aquasol).

5-HT3 receptors [2] = biological target: T2, 5-HT3 receptors (Rattus norvegicus, UniProt P35563); assay: Bradycardic Bezold-Jarisch reflex in anesthetized rats; type: in vivo, Sprague-Dawley; settings: for fall in the cardiac rhythm / duration of the fall in the cardiac rhythm: i.v. injection of 30 μg; for duration of the fall in the cardiac rhythm: approximately; for dose completely preventing the agonist-induced bradycardia: prior i.v. administration, against 30 μg i.v. agonist
T2 construct: bradycardia induced by stimulation of 5-HT3 receptors on vagal afferent neurons; from tissue; host or cells: whole anesthetized rat; receptors on vagal afferent neurons
T2 sequence (P35563 24-483): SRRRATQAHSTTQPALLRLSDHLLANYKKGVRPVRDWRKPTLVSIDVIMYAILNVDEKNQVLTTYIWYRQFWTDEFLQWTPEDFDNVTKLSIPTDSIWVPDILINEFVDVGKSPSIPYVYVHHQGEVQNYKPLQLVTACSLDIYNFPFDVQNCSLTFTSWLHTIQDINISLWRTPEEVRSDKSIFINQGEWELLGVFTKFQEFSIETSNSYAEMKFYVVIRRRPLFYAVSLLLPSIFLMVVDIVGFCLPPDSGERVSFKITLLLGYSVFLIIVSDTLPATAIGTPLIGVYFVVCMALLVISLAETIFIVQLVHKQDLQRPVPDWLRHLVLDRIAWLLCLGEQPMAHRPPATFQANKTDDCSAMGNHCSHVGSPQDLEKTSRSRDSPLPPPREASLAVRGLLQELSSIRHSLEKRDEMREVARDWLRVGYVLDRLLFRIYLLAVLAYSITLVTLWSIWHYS
Method: Bradycardia (Bezold-Jarisch reflex) is induced by the intravenous injection of 5-HT3 serotonin in rats anesthetized with urethane.
This response consists of a violent but transitory bradycardia induced by stimulation of 5-HT3 receptors on vagal afferent neurons.
The animal (adult male rat, Sprague-Dawley strain, 250-300 g) is first of all anesthetized with urethane (1.4 g/kg i.p.) and then a tracheotomy is performed in order to implant a tracheal cannula. A catheter (0.3 mm)is introduced into the abdominal aorta via the femoral artery for the continuous recording of the arterial pressure and the cardiac rhythm.
Bradycardia is expressed as percentage of lowering (maximum) of the base rhythm, before any treatment (means±M.S.D.).

[3] = Solubility in DMSO (NMR remark); type: physicochemical; settings: d6-DMSO, tetrahydrochloride
[4] = doses (I.V.) 30, 60 and 120 μg·Kg^-1 (one value given)

Cc1[nH]c2ccc(O)cc2c1CCN [2-methyl-5-hydroxytryptamine]
multiplication of the intracellular accumulation of 14C-guanidinium (5-HT3 receptors [1]): 5 | fall in the cardiac rhythm (5-HT3 receptors [2]): -80% | duration of the fall in the cardiac rhythm (5-HT3 receptors [2]): 4 to 5 s

c1ccc(CN2CCN(c3nc4ccccc4n4cccc34)CC2)cc1 [Example 1, 4-(4-benzylpiperazino)pyrrolo[1,2-a]quinoxaline]
pEC50 (5-HT3 receptors [1]): ~7.00

Clc1ccc2c(c1)nc(N1CCN(Cc3ccccc3)CC1)c1cccn12 [Example 3, 4-(4-benzylpiperazino)-7-chloropyrrolo[1,2-a]quinoxaline]
pEC50 (5-HT3 receptors [1]): 7.30 | Agonist Effect, Bradycardia % (5-HT3 receptors [2]; [4]): 0%

Fc1ccc(CN2CCN(c3nc4cc(Cl)ccc4n4cccc34)CC2)cc1 [Example 4, 7-CHLORO-4-[4-(4-FLUOROBENZYL)PIPERAZINO]PYRROLO[1,2-a]QUINOXALINE]
pEC50 (5-HT3 receptors [1]): 7.00 | Antagonist effect at (concentration) (5-HT3 receptors [1]; antagonist effect, 14C-guanidinium accumulation, NG 108-15 cells): 3 nM | Agonist Effect, Bradycardia % (5-HT3 receptors [2]; [4]): 0%

c1ccc(CN2CCN(c3nc4cccnc4n4cccc34)CC2)cc1 [Example 11, 6-(4-benzylpiperazino)pyrido[3,2-e]pyrrolo [1,2-a]pyrazine]
pEC50 (5-HT3 receptors [1]): 7.52 | Antagonist effect at (dose) (5-HT3 receptors [2]; I.V., rat, Bezold-Jarisch reflex): 120 µg/kg | Agonist Effect, Bradycardia % (5-HT3 receptors [2]; dose (I.V.) 120 μg·Kg^-1, n = 7, maximum lowering of base rhythm, means ± M.S.D.): 59.4 ± 7.2%

c1ccc(CN2CCN(c3ccc4nc(N5CCN(Cc6ccccc6)CC5)c5cccn5c4n3)CC2)cc1 [Example 93, 2,6-bis(4-benzylpiperazino)pyrido[3,2-e]pyrrolo[1,2-a]pyrazine]
solubility in DMSO [3]: insoluble

Cc1nccn1CC1CCc2c(c3ccccc3n2C)C1=O (stereo not shown) [ondansetron]
dose completely preventing the agonist-induced bradycardia (5-HT3 receptors [2]): 1 µg/kg

NCCc1c[nH]c2ccc(O)cc12 [serotonin]
multiplication of the intracellular accumulation of 14C-guanidinium (5-HT3 receptors [1]): 5 | Agonist Effect, Bradycardia % (5-HT3 receptors [2]; dose (I.V.) 30 μg·Kg^-1, n = 21, maximum lowering of base rhythm, means ± M.S.D.): 68.0 ± 2.3% | fall in the cardiac rhythm (5-HT3 receptors [2]): -80% | duration of the fall in the cardiac rhythm (5-HT3 receptors [2]): 4 to 5 s

COc1cc(N)c(Cl)cc1C(=O)NC1CN2CCC1CC2 (stereo not shown) [zacopride]
dose completely preventing the agonist-induced bradycardia (5-HT3 receptors [2]): 1 µg/kg
